Source: publication PMC10253591, “A Non-Systemic Phosphodiesterase-5 Inhibitor Suppresses Colon Proliferation in Mice” (International Journal of Molecular Sciences, 2023)

Legend:
[1] = system: LS-174T colon cancer cells; experiment: Cell-based permeability assay: cellular cGMP (ELISA) in linaclotide-treated cells; details: LS-174T cells; for EC50: Homo sapiens, LS174T, 1 µM linaclotide, 4 h, cGMP ELISA, read-out: EC50 for increasing cellular cGMP levels
Description: The cell-based permeability assays were performed using LS-174T colon cancer cells obtained from the American Type Culture Collection. Cells were treated with 1 µM linaclotide together with different PDE5i concentrations for 4 h, followed by processing of cell extracts for cellular cGMP measurement using cGMP ELISA kits according to the manufacturer instructions (Cayman Chemical, Ann Arbor, MI, USA). The calculated EC50 values are the concentration of compound required to increase cellular cGMP levels by 50% of maximum based on predictions determined by curve fitting in GraphPad Prism 9 (San Diego, CA, USA). To assess activation of cGMP signaling by immunoblotting, we used LS174T cells with inducible PKG2 expression that were described recently.

colon epithelium = experiment: Cell proliferation in the colon epithelium (Ki67 flow cytometry, PCNA IHC); format: in vivo; details: mice, 9 mg/kg in drinking water; for Ki67+ cells, median: 8 days, proximal colon epithelium, flow cytometry, control 23%; for reduction of number of PCNA+ cells/crypt: distal colon, IHC
Excerpt: Mice were weighed daily, and after at least 5 days of continuous consumption they were sacrificed, and the colon was dissected and processed for quantitation of proliferation by flow cytometry (proximal region) and by IHC (distal region). For flow cytometry, the epithelium was enriched by isolating crypts as described previously, followed by ethanol fixation and staining with phycoerythrin-conjugated anti-mouse Ki-67 antibodies according to the manufacturer instructions (Biolegend, San Diego, CA, USA). Flow cytometry was carried out using a BD Accuri C6 flow cytometer, and data were analyzed using FCS Express 7 software (De Novo Software, Pasadena, CA, USA). Processing the distal colon tissues for histology and immunohistochemistry was carried out as previously described. Briefly, tissues were fixed with 10% formaldehyde, embedded in paraffin blocks, and sectioned by the Augusta University histology core. The tissues were probed using antibodies to PCNA (1:100; Cell Signaling, Danvers, MA, USA). Visualization of PCNA antibodies was carried out using the ImmunoCruz ABC kit (Santa Cruz Biotechnology, Dallas, TX, USA). At least 10 different regions of the colon containing approximately 8 crypts per region were counted for each mouse.

human PDE5a = biological target: T1, human PDE5a (Homo sapiens, UniProt O76074); experiment: In vitro assay for PDE5 inhibitory activity (commercial kit); format: biochemical; details: mean of n = 3
T1 construct: purchased BPS Bioscience

[2] = LC-MS/MS measurement of compound in plasma and feces after oral gavage; details: mice; for level in feces: feces collected between 2–4 h
mice [3] = experiment: Tolerability and plasma level with compound in drinking water for up to 8 days; format: in vivo
[4] = both, mouse, in vivo, po
in vivo = details: both, mouse, po
[5] = Tolerability and plasma level with compound in drinking water for up to 8 days; format: in vivo; details: male, mouse, plasma, oral, 9 mg/kg daily; mice, in drinking water for 8 days
mice [6] = experiment: Arterial blood pressure by telemetry, interaction with isosorbide mononitrate; format: in vivo; details: ISMN 300 mg/kg i.p. alone (oral vehicle), baseline around 100 mmHg
Description: Male C57BL/6J mice (n = 4) were implanted with a PA-C10 blood pressure transmitter in the right carotid artery (Data Sciences International, St. Paul, MN, USA), and after recovery from surgery, the data was recorded using the DSI PhysioTel system (Data Sciences International, St. Paul, MN, USA). For each experiment, the mice were randomly selected for treatment with ISMN mixed in diH20, and 0.1 mL was injected i.p. for a final dose of 300 mg/kg. […] The experiment was repeated until each treatment had been reproduced in 5 independent biological trials after which mice were euthanized.
The surgical procedures and implantable telemetry approach for measuring blood pressure in mice have been described in detail previously. In brief, all surgical instruments were autoclaved on a stainless-steel tray that was used as the sterile surface during surgery. The mouse is anesthetized in an isoflurane-inducing chamber. Anesthesia used a fitted nose cone connected to an isoflurane system running 2% in a stream of 100% oxygen mixed with room air. The incision area was shaved and prepped with betadine and rinsed with 70% ethanol. Anesthesia was assessed continuously during shaving and prepping for surgery, with appropriate adjustments. An approximately 10 mm incision was made in the ventral neck region over the trachea to expose the […]. […]

[7] = 9 mg/kg in drinking water, up to 8 days

Structure (SMILES)	EC50 [1] [nM]	fold less potent than parent compound at increasing cGMP levels, based upon EC50 ([1]; versus sildenafil) [fold]	Ki67+ cells, median (colon epithelium) [%]	reduction of number of PCNA+ cells/crypt (colon epithelium)	IC50 (human PDE5a) [nM]	level in feces ([2]; oral 9 mg/kg) [µg/g]	level in feces ([2]; oral 36 mg/kg) [µg/g]	level in plasma ([2]; oral, doses up to 36 mg/kg, 1 h after administration)	excretion in feces ([2]; single oral 9 mg/kg, 8 h after administration)	level in plasma at other times of time course ([2]; single oral 9 mg/kg, any time other than 1 h during 24 h)	plasma peak in time course ([2]; single oral 9 mg/kg, at 1 h) [nM]	body weight compared to sildenafil or water alone (mice [3]; [7])	observed deleterious effects (mice [3]; [7])	histological analysis of the colon mucosa (mice [3]; 8 days in drinking water, H&E)	level in plasma (mice [3]; in drinking water for 8 days)	time of peak in plasma [4] [h]	concentration at 1 h (in vivo; 9 mg/kg) [nM]	concentration at 1 h (in vivo; 36 mg/kg) [nM]	concentration at 8 days [5] [nM]	arterial blood pressure after drug (mice [6]) [mmHg]
CCCc1nn(C)c2c(=O)[nH]c(-c3cc(S(=O)(=O)N4CCN(C(=O)CC(=O)O)CC4)ccc3OCC)nc12 [malonyl-sildenafil]	12100	18	7	about 30%	6.5	90	244	did not result in detectable levels	continued to be excreted at high levels	not detected	11	no difference	no observed deleterious effects	no obvious epithelial damage, edema or leukocyte infiltration	not detected	–	–	–	–	–
CCCc1nn(C)c2c(=O)[nH]c(-c3cc(S(=O)(=O)N4CCN(C)CC4)ccc3OCC)nc12 [sildenafil, reference compound]	670	–	11	about 30%	–	–	–	–	–	–	–	–	–	–	–	1 to 2	250	3500	3.3	–
O=[N+]([O-])O[C@@H]1CO[C@H]2[C@@H]1OC[C@@H]2O [ISMN, isosorbide mononitrate]	–	–	–	–	–	–	–	–	–	–	–	–	–	–	–	–	–	–	–	126
